| melting point [°C] | Structure (SMILES) |
| --- | --- |
| 156 | CC1(C)OC(=O)C(=NNc2ccc(Cl)cc2)C(=O)O1 |
| 180 | CCOC(=O)c1nn(-c2ccc(C)cc2)c(C)c1C(=O)c1noc(-c2ccc(C)cc2)c1S(=O)(=O)c1ccccc1 |
| -10 | C[Si]1(C)N[Si](C)(C)N[Si](C)(C)N1 |
| 218 to 220 | OCC1OC(Oc2ccc3cc(Br)ccc3c2)C(O)C(O)C1O (stereo unspecified) |
| 114 | CSc1nc(Cl)c(-c2ccccc2)c(Cl)n1 |
| 101 to 103 | O=C(Cl)c1ccc(-c2ccco2)cc1 |
| 131 | CC1(C)CC(=O)c2c(C(=O)c3cccs3)noc2C1 |
| 51 | COc1ccc(C=O)cc1Br |
| -92.8 | CCCCOC(=O)CCCC |
| 300 | Oc1nccnc1O |
| 202 | CC(NC(=O)COC(=O)c1ccccc1)C(N)=O (stereo unspecified) |
| 92 | O=C(ON=C(Cc1ccccc1)c1ccccc1)c1ccccc1 |
| 86 to 92 | O=C(O)[C@@H]1C[C@H]1c1ccccc1 (relative stereo) |
| 178 to 179 | N#Cc1c(NC(=O)CN2CCOCC2)sc2c1CCCC2 |
| 99 | c1ccc(/N=N/c2ccccc2NNc2ccccc2)cc1 |
| 297 | Cn1c(=O)c(C2=NNC(=O)C2=Cc2c[nH]c3ccccc23)c(O)c2ccccc21 |
| -4.7 | C1=CC=CC=CC=C1 |
| 111 | CC1(C)OC(C)(C(C)(C)O)CCC1C(=O)O (stereo unspecified) |
| 226 | Cc1cc(O)nc2ccccc12 |
| 67 to 69 | O=C(O)CCCc1ccc(Br)cc1 |
| 51 to 54 | OCc1ccc(-c2cccs2)s1 |
| 181 | COc1ccc2c(c1)C(=O)N(CCc1ccc(S(=O)(=O)NC(=O)NC3CCCCC3)cc1)C(=O)C2(C)C |
| < 25 | FC(F)(F)CCBr |

| melting point [°C] | Structure (SMILES) |
| --- | --- |
| 38 | Cc1cc(Br)ncc1Br |
| 183 to 185 | COc1cc2c(cc1OC)C(c1ccc(C)cc1)N(C(C)=O)CC2 (stereo unspecified) |
| 50 | O=C(CBr)OCc1ccc([N+](=O)[O-])cc1 |
| -15 | NCCCN1CCOCC1 |
| 300 | N#Cc1cc2[nH]c(=O)c(=O)[nH]c2cc1[N+](=O)[O-] |
| 150 | O=NN1NC(=O)CC1c1ccc(C2CC(=O)NN2N=O)cc1 (stereo unspecified) |
| 135 | O=C(N=NC(=O)N1CCCCC1)N1CCCCC1 |
| 275 | O=[N+]([O-])c1ccc(N=Nc2ccc(O)c3ccccc23)cc1 |
| < 20 | Brc1ccc(Oc2ccccc2Br)cc1 |
| 101 | O=C(O)Cc1c(F)cccc1F |
| 120 to 125 | C1=CC2CC1[C@@H](P(c1ccccc1)c1ccccc1)[C@@H]2P(c1ccccc1)c1ccccc1 |
| -121 | CC(C)C(C)C(C)(C)C (stereo unspecified) |
| 231 | O=C(c1ccc(F)cc1)C1CCN(CCn2c(=O)[nH]c3ccccc3c2=O)CC1 |
| 122 to 124 | N#CCCNC1CCCCC1 |
| 122 to 126 | CC1(C)CC(=O)OC(=O)C1 |
| -110 | CC#CC(C)C |
| 42 to 48 | Cc1cccc(CO)c1[N+](=O)[O-] |
| 88 to 93 | Cc1csc(=S)n1O |
| 177 | [O-][P+](c1ccccc1)(c1ccccc1)C1C=C(c2ccccc2)OC2=C1CCCC2 (stereo unspecified) |
| 171 to 173 | COc1cc(I)c(OC)cc1I |
| 143 | c1cnc2nccnc2c1 |
| 190 to 192 | CCOc1cccc2cc(C(=O)O)c(=O)oc12 |
| 192 to 194 | c1ccc(-c2nnc(NC3=NCCN3)s2)cc1 |

| melting point [°C] | Structure (SMILES) |
| --- | --- |
| 75 to 80 | Cc1ccc(S(=O)(=O)n2ccnc2)cc1 |
| 103 to 107 | COc1cc2c(cc1OC)C(CCO)NCC2 (stereo unspecified) |
| 123 to 124 | COc1ccc(C=C2C3=C(CCCC3)OC3=C2CCCC3)cc1 |
| 68 | CC1CCC(C(C)C)C(OC(=O)C2=CCC(C(=O)OC3CC(C)CCC3C(C)C)=CC2)C1 (stereo unspecified) |
| 120 | O=C(NCc1ccccn1)c1cc([N+](=O)[O-])cc([N+](=O)[O-])c1 |
| 69 to 71 | O=C(OCc1ccc(Cl)cc1)c1cnc(Cl)nc1C(F)(F)F |
| -28 | C=CC(C)(C)O |
| 129 | N#CC(=NO)c1ccccc1 |
| 225 | CN1C(CCl)Nc2cc(Cl)c(S(N)(=O)=O)cc2S1(=O)=O (stereo unspecified) |
| 235 | O=C(O)[C@H]1NCC[C@@H]1O |
| 58.5 to 60 | Cc1cncc(Oc2ccc(Br)cc2)n1 |
| 300 | O=C(O)c1ccc2cc(C(=O)O)ccc2c1 |
| 261 to 264 | O=C1C=C(O)c2cccc3cccc1c23 |
| 78 | CC(=O)c1ccc(C#N)s1 |
| 181 to 184 | CSCCC(NC(=O)c1ccc(C(F)(F)F)cc1)C(=O)NN (stereo unspecified) |
| 146 | CCC12CCCN(CCc3c([nH]c4ccccc34)CC1)C2 (stereo unspecified) |
| 173 | CCOc1ccc(C(=O)OCCN(CC)CC)cc1 |
| 226 to 227 | CC(C)(C)OC(=O)N1CCC2(CC1)NC(=O)c1cc(Br)ccc1O2 |
| 147 | COc1ccc(C(=O)c2cc(OC)c(OC)cc2[N+](=O)[O-])cc1 |
| 140 to 143 | CC(C)n1nnc2cc(C(=O)Cl)ccc21 |
| 73 to 75 | COc1ccc(Oc2ccc(C(F)(F)F)cc2N)cc1 |
| 124 | COc1ccc(C(=O)NCc2cccnc2)cc1C(=O)NCc1cccnc1 |
| 259 to 261 | O=C(O)c1cncnc1 |

| melting point [°C] | Structure (SMILES) |
| --- | --- |
| 133 | Ic1ccc(N2CCOCC2)nc1 |
| 80 | COC1N(c2ccccc2)N=C(c2ccccc2)N1c1ccccc1 (stereo unspecified) |
| 4.5 | CO[Si](OC)(OC)OC |
| 146 to 148 | COc1ccc(Br)c(OC)c1C(=O)O |
| 54 | Cc1ccc2cc(F)ccc2n1 |
| -85.5 | CCSC#N |
| 55 | Cc1cc(C#N)ccc1F |
| 190 | Cc1nn(C)c2ncnc(N)c12 |
| -48.3 | C/C=C/CCCCCCCC |
| 86 | Cc1cccc2c1C(=O)OC2 |
| -148 | FC(F)(F)C(F)(F)C(F)(F)F |
| 300 | N[C@H](C(=O)O)c1ccc(F)cc1 |
| 90 to 92 | O=[N+]([O-])c1cccnc1Oc1ccccc1F |
| 86 | OC(CCN1CCCC1)(c1ccccc1)C1CCCCC1 (stereo unspecified) |
| 120 | COc1cc(Cl)c(OC)cc1N |
| 117 to 120 | CC(=O)Nc1ccc(F)cc1Cl |
| 66 | O=C=Nc1ccc(-c2ccco2)cc1 |
| 39 | CC(C)(C)OC(=O)NN |
| 56 | O=S(=O)(Cl)c1cc(Cl)c(Cl)s1 |
| 222 | CN(C)C1C(=O)C(=C(N)O)C(=O)C2(O)C(=O)C3=C(O)c4c(O)ccc(Cl)c4C(O)C3CC12 (stereo unspecified) |
| 86 to 88 | CS(=O)(=O)n1ccnc1 |
| 168 | O=C(NNc1ccccc1)c1ccccc1 |
| 174 | CC(=O)c1ccc(NC(=O)C(C(F)(F)F)C(F)(F)F)cc1 |

| melting point [°C] | Structure (SMILES) |
| --- | --- |
| 50 | NCc1ccc(N2CCOCC2)cc1 |
| 300 | O=C1NN(c2ccccc2)C(=O)C1=Cc1ccc(F)cc1 |
| -4 | CC(C)(C)CC(C)(C)c1ccc(OCCO)cc1 |
| 295 | Nc1c(O)cc(S(=O)(=O)O)c2ccccc12 |
| 135 | Brc1noc2ncccc12 |
| 126 | CS(=O)(=O)Cc1ccccc1 |
| 45 to 46 | O=C(N=C=S)c1ccc(Cl)cc1 |
| 141 | COc1ccc(C(=O)C2=NOC3C(=O)N(c4ccc(F)cc4)C(=O)C23)cc1 (stereo unspecified) |
| 52 to 53 | COc1ccc(-c2noc(CCl)n2)cc1 |
| 106 | CC(=O)Oc1c(C)cc(OCC(O)CNC(C)C)c(C)c1C (stereo unspecified) |
| 45 to 48 | N#Cc1ccccc1N1CCCCC1 |
| -48 | NC1CCCCCCC1 |
| 98 to 100 | O=Cc1cccn1-c1ccc(I)cc1 |
| 91 to 93 | COc1ccc(Oc2ccc([N+](=O)[O-])cc2C(=O)Cl)cc1 |
| 73 | O=C(C=CC(=O)Oc1ccccc1)Oc1ccccc1 |
| 186 | CC(C)CCC[C@@H](C)[C@H]1CC[C@H]2[C@@H]3CC[C@H]4C[C@H](O)CC[C@]4(C)[C@H]3CC[C@]12C |
| 292 | Cn1c(=O)c(C2=NNC(=O)C2=Cc2ccccn2)c(O)c2ccccc21 |
| 130 | Oc1cccc(Cl)n1 |
| 199 to 201 | CC(C)(C)S(=O)(=O)c1cnc(N2CCCC2)nc1N |
| 201 | CC(=O)OC1C(O)C2=C(C(=O)C(OC(C)=O)C3(CC3C)C2=O)C2(C)CCC(=O)C(C)(C)C12 (stereo unspecified) |
| -60 | CC(C)C(=O)OCCCc1ccccc1 |

| Structure (SMILES) | melting point [°C] |
| --- | --- |
| CCC(N)Cc1c[nH]c2ccccc12 (stereo unspecified) | 97 |
| CNP(=O)(OC)Oc1ccc(C(C)(C)C)cc1Cl (stereo unspecified) | 60 |
| Nc1c(Br)cc(Br)cc1C(=O)c1ccccc1 | 98 |
| Cc1cc(N2CCNCC2)c2ccccc2n1 | 101 to 103 |
| BrC(Br)C(Br)(Br)Br | 56.5 |
| CCOP(=S)(OCC)SCC(=O)NC(C)C | 28.5 |
| N#CC(C#N)=Cc1ccco1 | 70 to 74 |
| CCCCCCC(O)C1C2=C(CC(C(O)C3CC=CC(=O)O3)CC3=C(C(=O)OC3=O)C1O)C(O)OC2=O (stereo unspecified) | 214 |
| O=C1NC(=S)NC(=O)C1=NNc1ccc(Cl)cc1 | 300 |
| Cc1cc(OC(=O)N(C)C)nn1C(=O)N(C)C | 69.5 |
| CCN(CC)CCOC(=O)C(O)(c1ccccc1)c1ccccc1 | 51 |
| CCc1ccccc1[N+](=O)[O-] | -12.3 |
| Cc1ccc(O)c2ccccc12 | 85.8 |
| C=CCC1(O)CCC2C3CCC4=CC(=O)CCC4=C3C=CC21C (stereo unspecified) | 120 |
| FCCl | -133 |
| NCCP(=O)(O)O | 296 |
| O=[N+]([O-])OCC(CO[N+](=O)[O-])O[N+](=O)[O-] | 14 |
| CC(=O)OC1CCC2C3CCC4=CC(O)CCC4(C)C3CCC12C (stereo unspecified) | 96 |

— a melting point compilation (Tetko et al.)
